# Test system: MV-4-11 cells
# Assay: Gene expression microarray analysis (Affymetrix PrimeView) and GSEA
# Format: cell-based, human
# Parameters: RFU PODN (11730768_x_at) / Fold change /veh PODN (11730768_x_at) / RFU LINC00158 (11744669_a_at) / Fold change /veh LINC00158 (11744669_a_at) / RFU DUSP10 (11751237_a_at) / Fold change /veh DUSP10 (11751237_a_at) / RFU ID3 (11757404_x_at) / Fold change /veh ID3 (11757404_x_at) / RFU PLEKHG5 (11737974_s_at) / Fold change /veh PLEKHG5 (11737974_s_at) / RFU LRRC4B (11730491_at) / Fold change /veh LRRC4B (11730491_at) / RFU GIMAP4 (11747438_a_at) / Fold change /veh GIMAP4 (11747438_a_at) / RFU KRT8 (11758183_x_at) / Fold change /veh KRT8 (11758183_x_at) / RFU CNN1 (11734310_a_at) / Fold change /veh CNN1 (11734310_a_at) / RFU VPS37D (11726825_at) / Fold change /veh VPS37D (11726825_at) / RFU C10orf10 (11716522_x_at) / Fold change /veh C10orf10 (11716522_x_at) / RFU KIR2DL2 /// KIR2DL4 /// KIR2DL5A /// KIR2DL5B /// KIR2DS1 /// KIR2DS2 /// KIR2DS3 /// KIR2DS4 /// KIR3DL3 /// KIR3DL3 /// KIR3DS1 (11738374_at) / Fold change /veh KIR2DL2 /// KIR2DL4 /// KIR2DL5A /// KIR2DL5B /// KIR2DS1 /// KIR2DS2 /// KIR2DS3 /// KIR2DS4 /// KIR3DL3 /// KIR3DL3 /// KIR3DS1 (11738374_at) / RFU C1QL1 (11718748_at) / Fold change /veh C1QL1 (11718748_at) / RFU TMPRSS4 (11747572_a_at) / Fold change /veh TMPRSS4 (11747572_a_at) / RFU HAMP (11756126_x_at) / Fold change /veh HAMP (11756126_x_at) / RFU RNFT2 (11725882_a_at) / Fold change /veh RNFT2 (11725882_a_at) / RFU NR4A2 (11747474_a_at) / Fold change /veh NR4A2 (11747474_a_at) / RFU ABCC12 (11746883_a_at) / Fold change /veh ABCC12 (11746883_a_at) / RFU TMEM136 (11760407_x_at) / Fold change /veh TMEM136 (11760407_x_at) / RFU CLDN22 /// WWC2 (11732394_at) / Fold change /veh CLDN22 /// WWC2 (11732394_at) / RFU HLA-DPB1 (11760878_x_at) / Fold change /veh HLA-DPB1 (11760878_x_at) / RFU SPINT1 (11716480_a_at) / Fold change /veh SPINT1 (11716480_a_at) / RFU GAP43 (11754022_s_at) / Fold change /veh GAP43 (11754022_s_at) / RFU A4GNT (11735810_at) / Fold change /veh A4GNT (11735810_at) / RFU PRB3 (11715151_x_at) / Fold change /veh PRB3 (11715151_x_at) / RFU TUBB4B (11761932_at) / Fold change /veh TUBB4B (11761932_at) / RFU CAPN14 (11732068_a_at) / Fold change /veh CAPN14 (11732068_a_at) / RFU TMCC2 (11721928_a_at) / Fold change /veh TMCC2 (11721928_a_at) / RFU IRGQ (11745062_a_at) / Fold change /veh IRGQ (11745062_a_at) / RFU FAM174B (11720279_a_at) / Fold change /veh FAM174B (11720279_a_at) / RFU TMPRSS4 (11748680_a_at) / Fold change /veh TMPRSS4 (11748680_a_at) / RFU FAM212B (11763350_a_at) / Fold change /veh FAM212B (11763350_a_at) / RFU PLEKHG5 (11743358_a_at) / Fold change /veh PLEKHG5 (11743358_a_at) / RFU ZSCAN30 (11745921_a_at) / Fold change /veh ZSCAN30 (11745921_a_at) / RFU CMKLR1 (11741424_a_at) / Fold change /veh CMKLR1 (11741424_a_at) / RFU LOC101060620 /// MAPK8IP1 (11723275_at) / Fold change /veh LOC101060620 /// MAPK8IP1 (11723275_at) / RFU SPTSSB (11747773_x_at) / Fold change /veh SPTSSB (11747773_x_at) / RFU PRSS12 (11739890_at) / Fold change /veh PRSS12 (11739890_at) / RFU BIN1 (11741810_x_at) / Fold change /veh BIN1 (11741810_x_at) / RFU WNT11 (11732464_a_at) / Fold change /veh WNT11 (11732464_a_at) / RFU C10orf10 (11716521_a_at) / Fold change /veh C10orf10 (11716521_a_at) / RFU C5orf56 (11738089_at) / Fold change /veh C5orf56 (11738089_at) / RFU CYB561 (11721691_x_at) / Fold change /veh CYB561 (11721691_x_at) / RFU ANKRD19P (11752326_a_at) / Fold change /veh ANKRD19P (11752326_a_at) / RFU OR2T12 /// OR2T33 /// OR2T8 (11738714_s_at) / Fold change /veh OR2T12 /// OR2T33 /// OR2T8 (11738714_s_at) / RFU VCAN (11748164_a_at) / Fold change /veh VCAN (11748164_a_at) / RFU JSRP1 (11732532_at) / Fold change /veh JSRP1 (11732532_at) / RFU KRTAP10-11 (11738290_x_at) / Fold change /veh KRTAP10-11 (11738290_x_at) / RFU MYO3A (11730013_a_at) / Fold change /veh MYO3A (11730013_a_at) / RFU EBF3 (11725865_a_at) / Fold change /veh EBF3 (11725865_a_at) / RFU CAMK2N1 (11719241_x_at) / Fold change /veh CAMK2N1 (11719241_x_at) / RFU C5orf56 (11738088_a_at) / Fold change /veh C5orf56 (11738088_a_at) / RFU OLFML3 (11715873_a_at) / Fold change /veh OLFML3 (11715873_a_at) / RFU LOC100653217 /// NTM (11731650_a_at) / Fold change /veh LOC100653217 /// NTM (11731650_a_at) / RFU MAPK11 (11762145_a_at) / Fold change /veh MAPK11 (11762145_a_at) / RFU FIZ1 (11724087_x_at) / Fold change /veh FIZ1 (11724087_x_at) / RFU OASL (11726364_x_at) / Fold change /veh OASL (11726364_x_at) / RFU SOX15 (11748057_x_at) / Fold change /veh SOX15 (11748057_x_at) / RFU CD79A (11719716_a_at) / Fold change /veh CD79A (11719716_a_at) / RFU HIST1H1D (11736915_at) / Fold change /veh HIST1H1D (11736915_at) / RFU CASKIN2 (11723855_a_at) / Fold change /veh CASKIN2 (11723855_a_at) / RFU LOC730098 (11760151_x_at) / Fold change /veh LOC730098 (11760151_x_at) / RFU OR4N2 (11742367_at) / Fold change /veh OR4N2 (11742367_at) / RFU PRRT2 (11749266_a_at) / Fold change /veh PRRT2 (11749266_a_at) / RFU SNX32 (11753110_a_at) / Fold change /veh SNX32 (11753110_a_at) / RFU CDHR5 (11726645_a_at) / Fold change /veh CDHR5 (11726645_a_at) / RFU RCAN1 (11760418_a_at) / Fold change /veh RCAN1 (11760418_a_at) / RFU FAM167A (11723789_a_at) / Fold change /veh FAM167A (11723789_a_at) / RFU FAM26E (11764081_at) / Fold change /veh FAM26E (11764081_at) / RFU ISYNA1 (11749810_s_at) / Fold change /veh ISYNA1 (11749810_s_at) / RFU ACY1 (11761880_at) / Fold change /veh ACY1 (11761880_at) / RFU 11764098_at / Fold change /veh 11764098_at / RFU SAMD14 (11745864_x_at) / Fold change /veh SAMD14 (11745864_x_at) / RFU NPB (11741838_a_at) / Fold change /veh NPB (11741838_a_at) / RFU TMPRSS6 (11731388_a_at) / Fold change /veh TMPRSS6 (11731388_a_at) / RFU KRTAP10-2 (11738614_at) / Fold change /veh KRTAP10-2 (11738614_at) / RFU ARHGAP8 /// PRR5-ARHGAP8 (11727945_x_at) / Fold change /veh ARHGAP8 /// PRR5-ARHGAP8 (11727945_x_at) / RFU KRTAP5-7 /// NADSYN1 (11734609_at) / Fold change /veh KRTAP5-7 /// NADSYN1 (11734609_at) / RFU RASL12 (11751679_a_at) / Fold change /veh RASL12 (11751679_a_at) / RFU CDKN2B (11736163_a_at) / Fold change /veh CDKN2B (11736163_a_at) / RFU PRF1 (11729649_at) / Fold change /veh PRF1 (11729649_at) / RFU, ZNF638 /// ZNF638-IT1 / Fold change vs veh, ZNF638 /// ZNF638-IT1 / RFU, PANK3 / Fold change vs veh, PANK3 / RFU, SH3YL1 / Fold change vs veh, SH3YL1 / RFU, ZEB2 / Fold change vs veh, ZEB2 / RFU, NRIP1 / Fold change vs veh, NRIP1 / RFU, PTTG1IP / Fold change vs veh, PTTG1IP / RFU, CAPN2 / Fold change vs veh, CAPN2 / RFU, MED14 / Fold change vs veh, MED14 / RFU, SNORA58 / Fold change vs veh, SNORA58 / RFU, C1orf63 / Fold change vs veh, C1orf63 / RFU, LRRFIP1 / Fold change vs veh, LRRFIP1 / RFU, NDUFAF7 / Fold change vs veh, NDUFAF7 / RFU, SLC12A2 / Fold change vs veh, SLC12A2 / RFU, IBTK / Fold change vs veh, IBTK / RFU, ESF1 / Fold change vs veh, ESF1 / Fold change vs veh, TMEM50B / RFU, TAOK1 / Fold change vs veh, TAOK1 / RFU, ACBD3 / Fold change vs veh, ACBD3 / RFU, TMA16 / Fold change vs veh, TMA16 / RFU, RWDD3 / Fold change vs veh, RWDD3 / RFU, BCAT1 / Fold change vs veh, BCAT1 / RFU, EDEM3 / Fold change vs veh, EDEM3 / RFU, TMEM33 / Fold change vs veh, TMEM33 / RFU, WDR75 / Fold change vs veh, WDR75 / RFU, AHCTF1 / Fold change vs veh, AHCTF1 / RFU, TFRC / Fold change vs veh, TFRC / RFU, ZDHHC17 / Fold change vs veh, ZDHHC17 / RFU, NOM1 / Fold change vs veh, NOM1 / RFU, ARL8B / Fold change vs veh, ARL8B / RFU, ZBTB11 / Fold change vs veh, ZBTB11 / RFU, TAMM41 / Fold change vs veh, TAMM41 / RFU, KIAA1704 /// LOC100996395 / Fold change vs veh, KIAA1704 /// LOC100996395 / RFU, ING1 / Fold change vs veh, ING1 / RFU, TRMT61B / Fold change vs veh, TRMT61B / RFU, FUBP3 / Fold change vs veh, FUBP3 / RFU, TP53 / Fold change vs veh, TP53 / RFU, TNKS2 / Fold change vs veh, TNKS2 / RFU, ZFP14 / Fold change vs veh, ZFP14 / RFU, ACTR2 / Fold change vs veh, ACTR2 / RFU, PPP3R1 / Fold change vs veh, PPP3R1 / RFU, PIK3R1 / Fold change vs veh, PIK3R1 / RFU, HNRNPA1 / Fold change vs veh, HNRNPA1 / RFU, RNF170 / Fold change vs veh, RNF170 / RFU, ZNF28 / Fold change vs veh, ZNF28 / RFU, RNGTT / Fold change vs veh, RNGTT / RFU, OGT / Fold change vs veh, OGT / RFU, BRD1 / Fold change vs veh, BRD1 / RFU, MARS / Fold change vs veh, MARS / RFU, ZNF655 / Fold change vs veh, ZNF655 / RFU, FAHD1 / Fold change vs veh, FAHD1 / RFU, BDP1 / Fold change vs veh, BDP1 / RFU, LRRCC1 / Fold change vs veh, LRRCC1 / RFU, ARID1A / Fold change vs veh, ARID1A / RFU, ZNF146 / Fold change vs veh, ZNF146 / RFU, ZNF330 / Fold change vs veh, ZNF330 / RFU, GPN3 / Fold change vs veh, GPN3 / RFU, C9orf123 / Fold change vs veh, C9orf123 / RFU, N4BP2L2 / Fold change vs veh, N4BP2L2 / RFU, ARFIP1 / Fold change vs veh, ARFIP1 / RFU, FAM179B / Fold change vs veh, FAM179B / RFU, BCL10 / Fold change vs veh, BCL10 / RFU, UHRF1BP1L / Fold change vs veh, UHRF1BP1L / RFU, BET1 / Fold change vs veh, BET1 / RFU, CNOT2 / Fold change vs veh, CNOT2 / RFU, ZNF268 / Fold change vs veh, ZNF268 / Fold change vs veh, ZNF507 / RFU, DGCR2 / Fold change vs veh, DGCR2 / RFU, WDSUB1 / Fold change vs veh, WDSUB1 / Fold change vs veh, HSP90B1 /// MIR3652 / RFU, ADSS / Fold change vs veh, ADSS / RFU, GK / Fold change vs veh, GK / RFU, ZNF148 / Fold change vs veh, ZNF148 / RFU, TAF9 / Fold change vs veh, TAF9 / RFU, SLC1A5 / Fold change vs veh, SLC1A5 / RFU, SLMO2 / Fold change vs veh, SLMO2 / RFU, ABCC4 / Fold change vs veh, ABCC4 / RFU, LOC101060439 /// RAP1B / Fold change vs veh, LOC101060439 /// RAP1B / RFU, RFX7 / Fold change vs veh, RFX7 / RFU, GTPBP10 / Fold change vs veh, GTPBP10 / RFU, CNEP1R1 / Fold change vs veh, CNEP1R1 / RFU, BIVM-ERCC5 /// ERCC5 / Fold change vs veh, BIVM-ERCC5 /// ERCC5 / RFU, ILF3 / Fold change vs veh, ILF3 / RFU 11762660_at / Fold change /veh 11762660_at / RFU VCAN (11757783_s_at) / Fold change /veh VCAN (11757783_s_at) / RFU DDX43 (11728927_at) / Fold change /veh DDX43 (11728927_at) / RFU KRT8 (11758188_x_at) / Fold change /veh KRT8 (11758188_x_at) / RFU NKD1 (11759106_at) / Fold change /veh NKD1 (11759106_at) / RFU SRD5A1 (11742802_a_at) / Fold change /veh SRD5A1 (11742802_a_at) / RFU TPSAB1 /// TPSB2 (11721975_s_at) / Fold change /veh TPSAB1 /// TPSB2 (11721975_s_at) / RFU GSTM3 (11746129_a_at) / Fold change /veh GSTM3 (11746129_a_at) / RFU IL23R (11737362_x_at) / Fold change /veh IL23R (11737362_x_at) / RFU TMEM51 (11727254_a_at) / Fold change /veh TMEM51 (11727254_a_at) / RFU PIWIL2 (11732686_x_at) / Fold change /veh PIWIL2 (11732686_x_at) / RFU ORM1 (11744905_x_at) / Fold change /veh ORM1 (11744905_x_at) / RFU CCDC152 (11743942_at) / Fold change /veh CCDC152 (11743942_at) / RFU ECM1 (11717891_a_at) / Fold change /veh ECM1 (11717891_a_at) / RFU IL23R (11748794_a_at) / Fold change /veh IL23R (11748794_a_at) / RFU TNFAIP8L3 (11732012_x_at) / Fold change /veh TNFAIP8L3 (11732012_x_at) / RFU MBOAT4 (11741988_at) / Fold change /veh MBOAT4 (11741988_at) / RFU 11764193_at / Fold change /veh 11764193_at / RFU TMEM53 (11763286_at) / Fold change /veh TMEM53 (11763286_at) / RFU MAGEB2 (11727129_at) / Fold change /veh MAGEB2 (11727129_at) / RFU TMEM200A (11744735_a_at) / Fold change /veh TMEM200A (11744735_a_at) / RFU CCDC152 (11751479_a_at) / Fold change /veh CCDC152 (11751479_a_at) / RFU FAM211A (11726209_a_at) / Fold change /veh FAM211A (11726209_a_at) / RFU RGS16 (11746705_a_at) / Fold change /veh RGS16 (11746705_a_at) / RFU VCAN (11755009_s_at) / Fold change /veh VCAN (11755009_s_at) / RFU RHOB (11743442_s_at) / Fold change /veh RHOB (11743442_s_at) / RFU RGS16 (11720943_a_at) / Fold change /veh RGS16 (11720943_a_at) / RFU RGS16 (11720944_at) / Fold change /veh RGS16 (11720944_at) / RFU, VPS4B / Fold change vs veh, VPS4B / RFU, CREB1 / Fold change vs veh, CREB1 / RFU, DNAJC13 / Fold change vs veh, DNAJC13 / RFU, GNAQ / Fold change vs veh, GNAQ / RFU, CDK5R1 / Fold change vs veh, CDK5R1 / RFU, ZRANB3 / Fold change vs veh, ZRANB3 / RFU, CUL4A / Fold change vs veh, CUL4A / RFU, CCNY / Fold change vs veh, CCNY / RFU, UFL1 / Fold change vs veh, UFL1 / RFU, COG3 / Fold change vs veh, COG3 / RFU, DIAPH2 / Fold change vs veh, DIAPH2 / RFU, SKA2 / Fold change vs veh, SKA2 / RFU, AFF3 / Fold change vs veh, AFF3 / RFU, LMF1 / Fold change vs veh, LMF1 / RFU, IPO11 / Fold change vs veh, IPO11 / RFU, DFFB / Fold change vs veh, DFFB / RFU, FOXP1 / Fold change vs veh, FOXP1 / RFU, CARD8 / Fold change vs veh, CARD8 / RFU, STRN3 / Fold change vs veh, STRN3 / RFU, ADK / Fold change vs veh, ADK / RFU, RASSF2 / Fold change vs veh, RASSF2 / RFU, WIPF1 / Fold change vs veh, WIPF1 / RFU, LARP1B / Fold change vs veh, LARP1B / RFU, RASA1 / Fold change vs veh, RASA1 / RFU, RB1 / Fold change vs veh, RB1 / RFU, PPFIA1 / Fold change vs veh, PPFIA1 / RFU, MAT2A / Fold change vs veh, MAT2A / RFU, CCT5 / Fold change vs veh, CCT5 / RFU, WDR92 / Fold change vs veh, WDR92 / RFU, CUX1 / Fold change vs veh, CUX1 / RFU, TTC7A / Fold change vs veh, TTC7A / RFU, TMEM135 / Fold change vs veh, TMEM135 / RFU, DEPTOR / Fold change vs veh, DEPTOR / RFU, CPM / Fold change vs veh, CPM / RFU, DNAJB6 / Fold change vs veh, DNAJB6 / RFU, CACNA2D3 / Fold change vs veh, CACNA2D3 / RFU, DTX4 / Fold change vs veh, DTX4 / RFU, TFCP2 / Fold change vs veh, TFCP2 / RFU, GMCL1 /// GMCL1P1 / Fold change vs veh, GMCL1 /// GMCL1P1 / RFU, AEBP2 / Fold change vs veh, AEBP2 / RFU, SNHG1 /// SNORD22 /// SNORD25 /// SNORD26 /// SNORD27 /// SNORD28 /// SNORD29 /// SNORD31 / Fold change vs veh, SNHG1 /// SNORD22 /// SNORD25 /// SNORD26 /// SNORD27 /// SNORD28 /// SNORD29 /// SNORD31 / Fold change (Aza/veh), C12orf56 (ProbeSet 11735607_a_at) / Fold change (ACY-1035/veh), C12orf56 (ProbeSet 11735607_a_at) / Fold change (Aza/veh), FGFR1OP (ProbeSet 11751329_s_at) / Fold change (ACY-1035/veh), FGFR1OP (ProbeSet 11751329_s_at) / Fold change (Aza/veh), VPS36 (ProbeSet 11739960_a_at) / Fold change (ACY-1035/veh), VPS36 (ProbeSet 11739960_a_at) / RFU SYPL1 (11715823_x_at) / Fold change /veh SYPL1 (11715823_x_at) / RFU IGFBP7 (11715501_s_at) / Fold change /veh IGFBP7 (11715501_s_at) / RFU REEP3 (11722064_at) / Fold change /veh REEP3 (11722064_at) / RFU IGLL1 (11728026_x_at) / Fold change /veh IGLL1 (11728026_x_at): dose or concentration left out as unconfirmed
# Conditions: ProbeSet 11752001_a_at; LIST D
compound,measurement,value
Nc1ncn([C@@H]2O[C@H](CO)[C@@H](O)[C@H]2O)c(=O)n1 [azacitidine],"Fold change vs veh, CUL4A",0.81

# From PMC5218480 (PLoS ONE, 2017)
